Where a SMILES comes first, the peptide text is derived from it. [ ]: non-standard residue; d: D form. The star is where a group is joined. Dolaproine = CO[C@@H]([C@@H]1CCCN1)[C@@H](C)C(=O)O; Dil = CC[C@H](C)[C@H](NC)[C@@H](CC(=O)O)OC; X1 = C[C@@H](N*)[C@@H](O)c1ccccc1; NMeV = CN[C@H](C(=O)O)C(C)C
Assay: Plasma pharmacokinetics of total antibody, total ADC-A and MMAE after ADC-A IV infusion
Format: in vivo, human
Parameters: Cmax/Dose / AUClast/Dose: unit not given beside the values
Details: plasma analyte = label
Method: The following describes a protocol for evaluating the safety, pharmacokinetics, pharmacodynamics, immunogenicity, and efficacy of a ROR1 immunoconjugate (ADC-A) across a range of dose levels when administered to subjects with previously treated relapsed or refractory CLL/SLL, MCL, FL, MZL, DLBCL, RTL, BL, LPL/WM, T cell NHL, ALL, or AML. ADC-A is administered intravenously (IV) in repeated 3-week cycles with a drug infusion on Day 1 of each cycle (Q1/3W [Schedule 1]); in repeated 3-week cycles with drug infusions on Days 1 and 8 of each cycle (Q2/3W [Schedule 2]); or in repeated 4-week cycles with drug infusions on Days 1, 8, and 15 of each cycle (Q3/4W [Schedule 3]) over a planned infusion time of ˜30 minutes. Infusion times may be extended as necessary to accommodate individual subject tolerance of treatment.

[1] = after ADC-A 0.5 mg/kg IV Q1/3W (n = 1)
[2] = after ADC-A 1.0 mg/kg IV Q1/3W (n = 3)
[3] = after ADC-A 1.5 mg/kg IV Q1/3W (n = 3)
[4] = after ADC-A 2.25 mg/kg IV Q1/3W (n = 9)
[5] = after ADC-A 2.5 mg/kg IV Q1/3W (n = 4)

In the case of `CC[C@H](C)[C@@H]([C@@H](CC(=O)N1CCC[C@H]1[C@H](OC)[C@@H](C)C(=O)N[C@H](C)[C@@H](O)c1ccccc1)OC)N(C)C(=O)[C@@H](NC(=O)[C@@H](NC)C(C)C)C(C)C` [MMAE, monomethyl auristatin E] (H-[NMeV]V[Dil][Dolaproine]-X1), the “Increases in Cmax and AUC with dose” value (ADC-A 0.5 to 2.5 mg/kg IV Q1/3W) is reported as “somewhat less than dose-proportional”, the AUClast [1] is reported as 271 ng·h/mL and the AUClast/Dose [1] is reported as 0.5420. The Cmax [1] was 1.15 ng/mL, the Cmax/Dose [1] was 0.0023 and the Tmax [1] was 48 h. It also gave an AUClast [2] of 467 ng·h/mL, an AUClast/Dose [2] of 0.4673 and a Cmax [2] of 2.66 ng/mL. The Cmax/Dose [2] was 0.0027, the Tmax [2] was 48 h and the AUClast [3] was 390 ng·h/mL. It also gave an AUClast/Dose [3] of 0.2600, a Cmax [3] of 1.66 ng/mL and a Cmax/Dose [3] of 0.0011. It also gave a Tmax [3] of 88.7 h, an AUClast [4] of 698 ng·h/mL and an AUClast/Dose [4] of 0.3102. It also gave a Cmax [4] of 4.43 ng/mL, a Cmax/Dose [4] of 0.0020 and a Tmax [4] of 75.1 h. It also gave an AUClast [5] of 994.8 ng·h/mL, an AUClast/Dose [5] of 0.3979 and a Cmax [5] of 6.7 ng/mL. It also gave a Cmax/Dose [5] of 0.0027 and a Tmax [5] of 78.5 h.

Reference: patent US20220152214A1, “CANCER TREATMENT WITH ROR1 ANTIBODY IMMUNOCONJUGATES” (VelosBio Inc., priority 2019, published 2022)
